Publication PMC10305617, “Sesquiterpene Coumarin Ethers with Selective Cytotoxic Activities from the Roots of Ferula huber-morathii Peşmen (Apiaceae) and Unequivocal Determination of the Absolute Stereochemistry of Samarcandin” (Pharmaceuticals, 2023)
Read-outs that look alike come from different tables or passages of the source.

Key:
[1] = tested on: Bcl-XL; experiment: Western blot, Bcl-XL protein level in COLO 205; format: cell-based, Human; settings: COLO 205, 24 h
Description: (§1) To evaluate the effect of mogoltadone (5) on the caspase-3, Bcl-XL and β-catenin protein levels, the COLO 205 cell line was treated with mogoltadone (5) and incubated for 24 h. At the end of the incubation period, the treated cells were harvested. After that, the harvested cells were washed with cold phosphate buffered saline and lysed in a RIPA buffer. The samples were centrifuged at 24,000 g for 45 min at 4° C, and the supernatants were used to determine the procaspase-3, Bcl-XL, β-catenin, and β-actin protein levels by western blot analysis. The cellular proteins were separated on sodium dodecyl sulfate-polyacrylamide gels (SDS-PAGE, AnyKD mini protean TGX precast protein gel, Bio-Rad, Hercules, CA, USA, 4569033). The separated proteins were transferred to the polyvinylidene difluoride (PVDF) membrane using the Trans-Blot Turbo transfer system (Bio-Rad). The membrane was then blocked with a 5% non-fat milk blocking buffer and consecutively incubated with rabbit monoclonal Bcl-XL antibody (1:20,000, ab17884, Abcam), rabbit monoclonal caspase-3 antibody (1:3000, ab3235, Abcam, Cambridge, MA, USA), rabbit monoclonal beta-actin antibody (1:10,000, M01263, BOSTER, Beijing, China), and rabbit polyclonal β-catenin antibody (1/5,000, ab264263, Abcam, Cambridge, MA, USA) overnight at 4° C. […]

[2] = tested on: ovarian carcinoma cells (CH1); set-up: method as in PMID 23701832; settings: cited from earlier work
[3] = tested on: COLO 205; experiment: MTS cell viability (cytotoxic activity) assay, COLO 205; format: cell-based, Human; settings: COLO 205, MTS, 72 h, mean ± SD, at least three experiments
Source text: (§2) Human colorectal cancer (COLO 205, CCL-222), breast cancer (MCF-7, HTB-22), chronic myelogenous leukemia (K-562, CCL-243), and umbilical vein/vascular endothelium (HUVEC, CRL-1730) cell lines were obtained from the American Type Culture Collection. The COLO 205, MCF-7, K-562, and HUVEC cell lines were maintained in Roswell Park Memorial Institute ([…], Wisent, Montreal, QC, CANADA), Eagle′s Minimum Essential Medium (EMEM, Wisent, Montreal, QC, CANADA), Iscove’s Modified Dulbecco’s Medium (IMDM, Wisent, Montreal, QC, CANADA), and Dulbecco′s Modified Eagle Medium (DMEM, Wisent, Montreal, QC, CANADA) supplemented with 10% fetal bovine serum (Capricorn, Ebsdorfergrund, Germany), 100 U/mL penicillin, and 100 µg/mL streptomycin (Wisent, Montreal, QC, CANADA), respectively. All of the cell lines were cultured at 37 °C in a humidified atmosphere containing 5% CO2.
(§3) A 3-[4,5-dimethylthiazol-2-yl]-5-[3-carboxymethoxyphenyl]-2-[4-sulfophenyl]-2H-tetrazolium, inner salt (MTS) cell viability assay was performed to evaluate the cytotoxic activities of the sesquiterpene coumarin ethers isolated from Ferula huber-morathii. HUVEC (1 × 10^4), COLO 205 (3 × 10^4), K-562 (3 × 10^4), and MCF7 (5 × 10^4) were plated in 96-well plates. Then, 24 h later, the tested compounds were dissolved in DMSO, and the cells were exposed to the different concentrations (131.58–1.028 µM) of the compounds for 72 h. Cisplatin and doxorubicin were used as a positive control. Next, an MTS/phenazine methosulfate (PMS) (Promega, Madison, WI, USA and Sigma, St. Louis, MO, USA respectively) mixture was added to each well and incubated for 1–4 h at 37 °C. The absorbance was read on a microplate reader (Biotek, Winooski, VT, USA) at 490 nm. The cytotoxic activities of the compounds were expressed as an IC50 value. The % inhibition of cell proliferation was calculated using the formula: % Inhibition = [1-(A490test/A490cont)] × 100, where A490test = absorbance of the test sample and A490cont = absorbance of the control sample [88]. The values of the 50% inhibition of the cell proliferation (IC50) were calculated by locating the x-axis values corresponding to one-half of the absorbance values of the sample.

[4] = tested on: caspase-3; experiment: Western blot, caspase-3 protein level in HUVEC; format: cell-based, Human
Description: as §1

[5] = tested on: caspase-9; experiment: Caspase-9 colorimetric activity assay in COLO 205 cells; format: cell-based, Human; settings: COLO 205, 24 h, highest concentration (131.58 µM)
Description: (§4) The caspase-3, -8, and -9 activities were detected by following the protocol of the caspase-3, -8, -9 colorimetric assay kits (Biovision, K106, K113, K119, Mountain View, CA, USA). The cells treated with mogoltadone (5) for 24 h were harvested and lysed with a RIPA (50 mM Tris-HCl, pH 8.0, 150 mM NaCl, 1% Nonidet P-40, 0.5% sodium deoxycholate and 0.1% SDS) cell lysis buffer. The lysed cells were centrifuged at 22,000 g for 30 min and the supernatant was collected in a tube. The samples (200 µg protein) were incubated with caspase substrates (final concentration, 200 µM) at 37° C for 2 h and read on a microplate reader at 405 nm. The fold-increase in enzyme activity was detected by comparison with the untreated control.

[6] = tested on: melanoma (SK-MEL-28); settings: cited from earlier work
[7] = tested on: HUVEC; experiment: MTS cell viability (cytotoxic activity) assay, non-cancerous HUVEC; format: cell-based, Human; settings: 72 h, mean ± SD, at least three experiments
Source text: as §2, §3

[8] = tested on: caspase-3; experiment: Caspase-3 colorimetric activity assay in COLO 205 cells; format: cell-based, Human; settings: COLO 205, 24 h, highest concentration (131.58 µM)
Description: as §4

[9] = tested on: cisplatin-resistant derivatives of the human ovarian (A2780P A2780/RCIS); settings: cited from earlier work
[10] = tested on: MCF-7; experiment: MTS cell viability (cytotoxic activity) assay, MCF-7; format: cell-based, Human; settings: for IC50: MCF-7, MTS, 72 h, mean ± SD, at least three experiments
Source text: as §2, §3

[11] = tested on: lung (A549); settings: cited from earlier work
[12] = tested on: COLO 205, K-562, MCF-7 and HUVEC cell lines; experiment: MTS cytotoxicity, overall verbal grading over the cell line panel; format: cell-based, Human; settings: authors' verbal summary over COLO 205, K-562, MCF-7, HUVEC
Source text: as §2, §3

[13] = tested on: Bcl-XL; experiment: Western blot, Bcl-XL protein level in HUVEC; format: cell-based, Human
[14] = tested on: β-catenin; experiment: Western blot, β-catenin protein level in COLO 205; format: cell-based, Human; settings: COLO 205, 24 h
Description: as §1

[15] = tested on: MCF-7 breast cancer cell line; settings: cited from earlier work
[16] = tested on: caspase-8; experiment: Caspase-8 colorimetric activity assay in COLO 205 cells; format: cell-based, Human; settings: COLO 205, 24 h, highest concentration (131.58 µM)
Description: as §4

[17] = tested on: K-562; experiment: MTS cell viability (cytotoxic activity) assay, K-562; format: cell-based, Human; settings: for IC50: K-562, MTS, 72 h, mean ± SD, at least three experiments
Source text: as §2, §3

[18] = tested on: procaspase-3; experiment: Western blot, procaspase-3 protein level in COLO 205; format: cell-based, Human; settings: COLO 205, 24 h, significant at 131.58 µM
Description: as §1

[19] = tested on: β-catenin; experiment: Western blot, β-catenin protein level in HUVEC; format: cell-based, Human
[20] = tested on: K-562; experiment: MTS cell viability (cytotoxic activity) assay, K-562; format: cell-based, Human; settings: K-562, MTS, 72 h; root extracts
[21] = tested on: MCF-7; experiment: MTS cell viability (cytotoxic activity) assay, MCF-7; format: cell-based, Human; settings: MCF-7, MTS, 72 h; root extracts
[22] = tested on: stomach (AGS); set-up: method as in PMID 25843566, PMID 20961138, PMID 20628935, PMID 22351980, PMID 25818230; settings: cited from earlier work
[23] = tested on: ovarian (A2780); settings: cited from earlier work
[24] = tested on: bladder cancer cells (5637); settings: cited from earlier work
[25] = tested on: cervical (HeLa); settings: cited from earlier work
[26] = tested on: colon (HCT116); settings: cited from earlier work
[27] = tested on: chronic myelogenous leukemia (K562); settings: cited from earlier work
[28] = tested on: colorectal (HT29); set-up: method as in PMID 23701832, PMID 26503061, PMID 30944714, PMID 27002410, PMID 33676992; settings: read-out: cytotoxic activity HT29; cited from earlier work
[29] = tested on: breast (MDA-MB-231); set-up: method as in PMID 23701832, PMID 26503061, PMID 30944714, PMID 27002410, PMID 33676992; settings: cited from earlier work

## C=C1CCC2C(C)(C)C(=O)CCC2(C)C1COc1ccc2ccc(=O)oc2c1 (centres unmarked) [Mogoltadone (5), mogoltadone]
[1]
  effect on Bcl-XL level: suppressed
[2]; ovarian carcinoma cell line (CH1)
  cytotoxic effect against CH1, in words: moderate cytotoxic effects
[3]; Homo sapiens
  IC50: 31.71 ± 0.15 µM
[4]
  effect on caspase-3 protein level: did not have a statistically significant effect
[5]
  increase in caspase-9 activity compared with the control: 1.97 fold
[6]; ref Valiahdi et al. 29
  cytotoxic activity against SK-MEL-28, in words: did not find any potent cytotoxic activity
[7]; Homo sapiens
  IC50: > 200 µM
[8]
  increase in caspase-3 activity compared with the control: 4.72 fold
[9]; A2780/RCIS cells, combination with cisplatin
  effect of combination with cisplatin on cisplatin cytotoxicity: significantly enhanced the cisplatin cytotoxicity
[9]; A2780/RCIS, read-out: cytotoxic effect A2780/RCIS
  IC50: > 50 µM
[10]; HUVEC versus MCF-7
  selectivity index MCF-7: > 8.64
[10]; Homo sapiens, MCF7
  IC50: 30.4 ± 0.6 µM
[11]; ref Valiahdi et al. 29
  cytotoxic activity against A549, in words: did not find any potent cytotoxic activity
[12]
  cytotoxicity in words: moderate or strong cytotoxicity
[13]
  effect on Bcl-XL protein level: did not have a statistically significant effect
[14]
  effect on β-catenin levels: decreased
[15]; read-out: cytotoxic effect MCF-7
  IC50: > 100 µM
[16]
  increase in caspase-8 activity compared with the control: 2 fold
[17]; HUVEC versus K-562
  selectivity index K-562: > 12.46
[17]; Homo sapiens, K562
  IC50: 21.1 ± 0.85 µM
[18]
  effect on procaspase-3 level: decreased
[19]
  effect on β-catenin protein level: did not have a statistically significant effect

## N.N.[Cl][Pt][Cl] [Cisplatin, reference compound]
[20]
  IC50 (µg/mL) K-562: 9.73 ± 0.30 µg/mL
[3]
  IC50: 112 ± 3.11 µM
[21]
  IC50 (µg/mL) MCF-7: 35.52 ± 0.76 µg/mL
[5]
  increase in caspase-9 activity compared with the control: 2.07 fold
[7]
  IC50: 40.7 ± 1.12 µM
[8]
  increase in caspase-3 activity compared with the control: 6.73 fold
[10]
  IC50: 64.2 ± 5.25 µM
[16]
  increase in caspase-8 activity compared with the control: 1.8 fold
[17]
  IC50: 8.1 ± 0.25 µM

## CC1=CC[C@@H]2C(C)(C)[C@H](O)CC[C@@]2(C)[C@@H]1COc1ccc2ccc(=O)oc2c1 [Feselol (3), feselol]
[22]
  cytotoxic activity on stomach (AGS), in words: did not show any cytotoxic activity
[3]; Homo sapiens
  IC50: 38.4 ± 0.8 µM
[7]; Homo sapiens
  IC50: 38.8 ± 0.83 µM
[23]; ref Soltani et al. 67, read-out: cytotoxic activity A2780
  IC50: 20 µM
[10]; Homo sapiens, MCF7
  IC50: 36 ± 1.29 µM
[11]; ref Soltani et al. 67, read-out: cytotoxic activity A549
  IC50: 26 µM
[12]
  cytotoxicity in words: moderate or strong cytotoxicity
[24]; bladder (TCC, 5637)
  cytotoxic activity on bladder (TCC, 5637), in words: did not show any cytotoxic activity
[25]
  cytotoxic activity on HeLa, in words: did not show any cytotoxic activity
[25]; ref Soltani et al. 67, read-out: cytotoxic activity HeLa
  IC50: 35 µM
[17]; Homo sapiens, K562
  IC50: 72.5 ± 0.74 µM
[26]; HCT-116, ref Soltani et al. 67, read-out: cytotoxic activity HCT-116
  IC50: 28 µM
[27]
  cytotoxic activity on K562, in words: did not show any cytotoxic activity

## CC1=CC[C@@H]2C(C)(C)C(=O)CC[C@@]2(C)[C@@H]1COc1ccc2ccc(=O)oc2c1 [Conferone (1), conferone]
[2]; ovarian carcinoma cells (CH1)
  IC50: 7.8 µM
[3]; Homo sapiens
  IC50: 27.6 ± 0.69 µM
[6]; read-out: cytotoxic activity SK-MEL-28
  IC50: 64 µM
[7]; Homo sapiens
  IC50: 46.1 ± 0.99 µM
[23]; read-out: cytotoxic activity A2780
  IC50: 32 µM
[9]; A2780P A2780/RCIS, read-out: cytotoxic activity A2780P A2780/RCIS
  IC50: 25 µM
[10]; Homo sapiens, MCF7
  IC50: 34 ± 0.68 µM
[11]; read-out: cytotoxic activity A549
  IC50: 38 µM
[12]; listed as 1
  cytotoxicity in words: moderate or strong cytotoxicity
[12]; listed as conferone (1)
  cytotoxicity in words: moderate cytotoxic effect
[24]; 5637
  cytotoxic effect on bladder cancer cells (5637), in words: no cytotoxic effect
[25]; read-out: cytotoxic activity HeLa
  IC50: 38 µM
[15]; read-out: cytotoxic activity MCF-7
  IC50: > 100 µM
[28]
  IC50: 20 µM
[29]
  cytotoxic activity MDA-MB-231: 30 µg/mL
[17]; Homo sapiens, K562
  IC50: 55.5 ± 0.94 µM
[26]; HCT116, read-out: cytotoxic activity HCT116
  IC50: 32 µM
[27]
  cytotoxic activity K562: 86.12 µg/mL
